The test concerns the target T1, human OX2 receptor (Homo sapiens, UniProt O43614).
T1 construct: expressed in transfected cells
T1 sequence (O43614 1-444): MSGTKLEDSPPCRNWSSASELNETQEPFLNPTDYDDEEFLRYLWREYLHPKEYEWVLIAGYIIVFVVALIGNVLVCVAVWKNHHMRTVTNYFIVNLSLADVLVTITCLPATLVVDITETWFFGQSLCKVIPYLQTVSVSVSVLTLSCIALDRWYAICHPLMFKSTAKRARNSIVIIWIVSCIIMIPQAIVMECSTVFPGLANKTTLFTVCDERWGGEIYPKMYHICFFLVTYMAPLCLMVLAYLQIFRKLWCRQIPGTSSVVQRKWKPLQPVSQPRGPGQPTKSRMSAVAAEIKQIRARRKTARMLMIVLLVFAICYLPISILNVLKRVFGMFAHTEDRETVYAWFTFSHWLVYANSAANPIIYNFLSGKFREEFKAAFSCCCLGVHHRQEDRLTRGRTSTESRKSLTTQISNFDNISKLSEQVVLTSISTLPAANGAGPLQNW
Nature of the test: Measurement of orexin type 2 receptor agonist activity (calcium fluorescence, Fluo-4, FDSS). In kind it is cell-based. The note with it: 3 uM test compound; CHO cells expressing human OX2 receptor; DMSO = 0%, 10 nM orexin A (human) = 100%. In a few lines:
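Agonist activity (%) was normalised to the response to 10 nM final human orexin A (100%) and to the DMSO vehicle (0%). The response was measured as the Fluo-4 calcium signal, read kinetically over 1 min 40 s after compound addition to Fluo-4/probenecid-loaded stable CHO-K1 clones expressing human OX2 (aa 1-444).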

With `CS(=O)(=O)N[C@@H]1CN2C(=O)N(c3noc4cccc(-c5ccccc5F)c34)CC[C@@H]2C1(F)F` [Example 273, N-{(4aR,6R)-5,5-difluoro-2-[4-(2-fluorophenyl)-1,2-benzoxazol-3-yl]-1-oxooctahydropyrrolo[1,2-c]pyrimidin-6-yl}methanesulfonamide], the “OX2R agonist activity (3 uM, %)” value is recorded as 103%. Under `CS(=O)(=O)N[C@@H]1CN2C(=O)N(c3noc4cc(C(F)F)cc(-c5c(F)cc(F)cc5F)c34)C[C@@H]2C1(F)F` [Example 274, N-{(6R,7aR)-2-[6-(difluoromethyl)-4-(2,4,6-trifluorophenyl)-1,2-benzoxazol-3-yl]-7,7-difluoro-3-oxohexahydro-1H-pyrrolo[1,2-c]imidazol-6-yl}methanesulfonamide] stands 102%; under `CCS(=O)(=O)N[C@@H]1CN2C(=O)N(c3noc4cc(C)nc(-c5c(F)cccc5F)c34)CC[C@@H]2C1(F)F` [Example 275, N-{(4aR,6R)-2-[4-(2,6-difluorophenyl)-6-methyl[1,2]oxazolo[4,5-c]pyridin-3-yl]-5,5-difluoro-1-oxooctahydropyrrolo[1,2-c]pyrimidin-6-yl}ethanesulfonamide], 103%. As to `CS(=O)(=O)N[C@@H]1CN2C(=O)N(c3noc4cccc(-c5cccc(F)c5F)c34)CC[C@@H]2C1(F)F` [Example 276, N-{(4aR,6R)-2-[4-(2,3-difluorophenyl)-1,2-benzoxazol-3-yl]-5,5-difluoro-1-oxooctahydropyrrolo[1,2-c]pyrimidin-6-yl}methanesulfonamide], the “OX2R agonist activity (3 uM, %)” value worked out at 100%.

`CS(=O)(=O)N[C@@H]1CN2C(=O)N(c3noc4cccc(-c5ccc(F)cc5)c34)CC[C@@H]2C1(F)F` [Example 277, N-{(4aR,6R)-5,5-difluoro-2-[4-(4-fluorophenyl)-1,2-benzoxazol-3-yl]-1-oxooctahydropyrrolo[1,2-c]pyrimidin-6-yl}methanesulfonamide]: the “OX2R agonist activity (3 uM, %)” value turned out to be 106%. With `CS(=O)(=O)N[C@@H]1CN2C(=O)N(c3noc4cccc(-c5cccs5)c34)CC[C@@H]2C1(F)F` [Example 278, N-{(4aR,6R)-5,5-difluoro-1-oxo-2-[4-(thiophen-2-yl)-1,2-benzoxazol-3-yl]octahydropyrrolo[1,2-c]pyrimidin-6-yl}methanesulfonamide], the “OX2R agonist activity (3 uM, %)” value is 109%. Under `O=C1N(c2noc3cc(F)cc(-c4c(F)cccc4F)c23)CC[C@H]2N1C[C@@H](NS(=O)(=O)CF)C2(F)F` [Example 279, N-{(4aR,6R)-2-[4-(2,6-difluorophenyl)-6-fluoro-1,2-benzoxazol-3-yl]-5,5-difluoro-1-oxooctahydropyrrolo[1,2-c]pyrimidin-6-yl}-1-fluoromethanesulfonamide] stands 104%; under `O=C1N(c2noc3ccc(F)c(-c4c(F)cccc4F)c23)CC[C@H]2N1C[C@@H](NS(=O)(=O)C1CC1)C2(F)F` [Example 280, N-{(4aR,6R)-2-[4-(2,6-difluorophenyl)-5-fluoro-1,2-benzoxazol-3-yl]-5,5-difluoro-1-oxooctahydropyrrolo[1,2-c]pyrimidin-6-yl}cyclopropanesulfonamide], 101%; under `O=C1N(c2noc3cc(F)cc(-c4c(F)cc(F)cc4F)c23)CC[C@H]2N1C[C@@H](NS(=O)(=O)C1CC1)C2(F)F` [Example 281, N-{(4aR,6R)-5,5-difluoro-2-[6-fluoro-4-(2,4,6-trifluorophenyl)-1,2-benzoxazol-3-yl]-1-oxooctahydropyrrolo[1,2-c]pyrimidin-6-yl}cyclopropanesulfonamide], 107%. Under `O=c1n(-c2noc3cc(F)cc(-c4c(F)cccc4F)c23)cc2n1C[C@@H](NS(=O)(=O)CF)C2(F)F` [Example 283, N-{(6R)-2-[4-(2,6-difluorophenyl)-6-fluoro-1,2-benzoxazol-3-yl]-7,7-difluoro-3-oxo-2,5,6,7-tetrahydro-3H-pyrrolo[1,2-c]imidazol-6-yl}-1-fluoromethanesulfonamide] stands 107%.

For the origin of these results see patent US11987586B1 (TAKEDA PHARMACEUTICAL COMPANY LIMITED, priority 2022, dated 2024).
